Source: patent US11090304B2 (Amgen Inc., priority 2018, dated 2021)
pIC50: −log10 of the molar value. Where two headings read alike, the source gives them in different places.

What was measured:
[1] = test system: Phosphorylation of ERK1/2 in A549 cells; assay: Phospho-ERK1/2 MSD assay in A549 cells; assay type: cell-based
Description: For compounds in Table 89, the following assay conditions were employed:
Phospho-ERK1/2 MSD Assay:
Sixteen hours prior to compound treatment, MIA PaCa-2 or A549 cells were seeded in 96-well cell culture plates at a density of 25,000 cells/well and incubated at 37° C., 5% CO2. A compound dose-response titration was diluted in growth media, added to appropriate wells of a cell culture plate, and then incubated at 37° C., 5% CO2 for 2 or 4 hours (see Table 15). Following compound treatment, cells were stimulated with 10 ng/mL EGF (Roche 11376454001) for 10 min, washed with ice-cold Dulbecco's phosphate-buffered saline, no Ca^2+ or Mg^2+ (ThermoFisher Scientific 14190144), and then lysed in RIPA buffer (50 mM Tris-HCl pH 7.5, 1% Igepal, 0.5% sodium deoxycholate, 150 mM NaCl, and 0.5% sodium dodecyl sulfate) containing protease inhibitors (Roche 4693132001) and phosphatase inhibitors (Roche 4906837001). Phosphorylation of ERK1/2 in compound-treated lysates was assayed using Phospho-ERK1/2 Whole Cell Lysate kits (Meso Scale Discovery K151DWD) according to the manufacturer's protocol. Assay plates were read on a Meso Scale Discovery Sector Imager 6000, and data were analyzed using a 4-parameter logistic model to calculate IC50 values.

[2] = test system: Phosphorylation of ERK1/2 in MIA PaCa-2 cells; assay: Phospho-ERK1/2 MSD assay in MIA PaCa-2 cells; assay type: cell-based
Summary of the method: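 MSD electrochemiluminescence readout of phospho-ERK1/2 in whole-cell lysates, IC50 by 4-parameter logistic fit. Compound titrations were applied for 2 or 4 h at 37 °C, 5% CO2, followed by 10 ng/mL EGF stimulation for 10 min before lysis.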

[3] = target: GDP-bound KRAS protein (aa 1-169), containing both G12C and C118A amino acid substitutions (Homo sapiens, UniProt P01116, C118A/G12C); assay: Coupled nucleotide exchange assay (SOS-mediated, AlphaScreen); assay type: biochemical; conditions: 5 min compound pre-incubation
Chain of GDP-bound KRAS protein (aa 1-169), containing both G12C and C118A amino acid substitutions (P01116 1-169 isoform P01116-2 G12C/C118A): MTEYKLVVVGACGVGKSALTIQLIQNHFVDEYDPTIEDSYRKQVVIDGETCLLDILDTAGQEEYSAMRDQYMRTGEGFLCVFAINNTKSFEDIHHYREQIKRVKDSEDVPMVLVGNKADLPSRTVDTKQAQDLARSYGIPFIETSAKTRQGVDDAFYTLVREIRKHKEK

[4] = Homo sapiens, A549, 2 h, read-out: p-ERK IC50 (2 h; A549), 2 h compound treatment
[5] = read-out: p-ERK IC50 (2 h; MIA PaCa-2), 2 h compound treatment
[6] = Homo sapiens, A549, 4 h, read-out: p-ERK IC50 (4 h; A549), 4 h compound treatment
[7] = Homo sapiens, MIA PaCa-2, 4 h, read-out: p-ERK IC50 (4 h; MIA PaCa-2), 4 h compound treatment
[8] = Homo sapiens, MIA PaCa-2, 2 h, read-out: p-ERK IC50 (2 h; MIA PaCa-2), 2 h compound treatment

pIC50 [1, 4]	pIC50 [2, 8]	Coupled exchange IC50 (5 min) [3]	Compound	also measured
≤ 5.00	–	–	C=CC(=O)N1CCN(c2nc(=O)n(-c3ccccc3C(C)C)c3cc(-c4ccccc4F)c(Cl)cc23)CC1 (single isomer, unassigned) [Example 88-1, 6-chloro-7-(2-fluorophenyl)-1-(2-(2-propanyl)phenyl)-4-(4-(2-propenoyl)-1-piperazinyl)-2(1H)-quinazolinone]	–
≤ 4.00	4.18	–	C=CC(=O)N1CCN(c2nc(=O)n(C(CC)CC)c3nc(-c4ccccc4F)c(Cl)cc23)[C@@H](C)C1 [Example 54-2, 6-chloro-7-(2-fluorophenyl)-4-((2S)-2-methyl-4-(2-propenoyl)-1-piperazinyl)-1-(3-pentanyl) pyrido[2,3-d]pyrimidin-2(1H)-one]	pIC50 [1, 6]: ≤ 4.00; pIC50 [2, 7]: 4.25
4.31	5.65	–	C=CC(=O)N1CCN(c2nc(=O)n(-c3c(CC)cccc3CC)c3nc(C4CCCC4)c(Cl)cc23)[C@@H](C)C1 [Example 54-4, 6~chloro-7-cyclopentyl-1-(2,6-diethylphenyl)-4-((2S)-2-methyl-4-(2-propenoyl)-1-piperazinyl) pyrido[2,3-d]pyrimidin-2(1H)-one]	–
≤ 5.00	–	–	C=CC(=O)N1CCN(c2nc(=O)n(-c3ccccc3C(C)C)c3cc(-c4ccccc4C(F)(F)F)c(Cl)cc23)[C@@H](C)C1 [Example 62-2, 6-chloro-4-((2S)-2-methyl-4-(2-propenoyl)-1-piperazinyl)-1-(2-(2-propanyl)phenyl)-7-(2-(trifluoromethyl)phenyl)-2(1H)-quinazolinone]	–

Second part, the compound before the results:

Compound	pIC50 [1, 4]	pIC50 [2, 8]	Coupled exchange IC50 (5 min) [3]	also measured
C=CC(=O)N1CCN(c2nc(=O)n(-c3ccccc3C(C)C)c3cc(Br)c(Cl)cc23)[C@@H](C)C1 (single isomer, unassigned) [Example 9-17-1]	–	–	–	pIC50 ([1]; read-out: p-ERK IC50 (4 h; A549), 4 h compound treatment): 4.12; pIC50 ([2]; read-out: p-ERK IC50 (4 h; MIA PaCa-2), 4 h compound treatment): 5.66
C=CC(=O)N1CCN(c2nc(=O)n(-c3ccccc3C(C)C)c3nc(-c4ccccc4Cl)c(Cl)cc23)[C@@H](C)C1 (single isomer, unassigned) [Example 54-84-1]	≤ 4.00	–	–	pIC50 [2, 5]: 6.13
C=CC(=O)N1CCN(c2nc(=O)n(-c3ccccc3C(C)C)c3nc(-c4ccccc4F)c(Cl)cc23)[C@@H](C)C1 (single isomer, unassigned) [Example 54-86-1]	≤ 5.00	–	–	pIC50 [2, 5]: 6.17
C=CC(=O)N1CCN(c2nc(=O)n(-c3ccccc3C(C)C)c3nc(-c4c(O)cccc4F)c(Cl)cc23)CC1 (single isomer, unassigned) [Example 60-24-1, (M)-6-chloro-7-(2-fluoro-6-hydroxyphenyl)-1-(2-(2-propanyl)phenyl)-4-(4-(2-propenoyl)-1-piperazinyl)pyrido[2,3-d]pyrimidin-2(1H)-one]	≤ 4.00	–	–	–
C=CC(=O)N1CCN(c2nc(=O)n(-c3ccccc3C(C)C)c3cc(-c4ccccc4F)c(Cl)cc23)[C@@H](C)C1 (single isomer, unassigned) [Example 62-1-1]	≤ 5.00	–	–	pIC50 [2, 5]: 6.37
C=CC(=O)N1CCN(c2nc(=O)n(-c3ccccc3C(C)C)c3c(C)c(-c4c(O)cccc4F)c(Cl)cc23)[C@@H](C)C1 (single isomer, unassigned) [Example 90-1]	–	–	–	pIC50 [1, 6]: ≤ 4.48; pIC50 [2, 7]: 6.66
C=CC(=O)N1CCN(c2nc(=O)n(-c3ccccc3C(C)C)c3cc(Br)c(Cl)cc23)[C@@H](C)C1 [Example 9-17]	–	–	–	pIC50 [1, 6]: 4.13; pIC50 [2, 7]: 5.95
C=CC(=O)N1CCN(c2nc(=O)n(-c3c(Cl)ncnc3C(C)C)c3nc(-c4ccccc4F)c(Cl)cc23)[C@@H](C)C1 [Example 133, 6-Chloro-1-(4-chloro-6-(2-propanyl)-5-pyrimidinyl)-7-(2-fluorophenyl)-4-((2S)-2-methyl-4-(2-propenoyl)-1-piperazinyl)pyrido[2,3-d]pyrimidin-2(1H)-one]	–	6.70	0.119 | nda μM	–
C=CC(=O)N1CCN(c2nc(=O)n(-c3c(C)cc(N)nc3C(C)C)c3nc(-c4ccccc4F)c(Cl)cc23)[C@@H](C)C1 [Example 136, 1-(6-Amino-4-methyl-2-(2-propanyl)-3-pyridinyl)-6-chloro-7-(2-fluorophenyl)-4-((2S)-2-methyl-4-(2-propenoyl)-1-piperazinyl)pyrido[2,3-d]pyrimidin-2(1H)-one]	–	6.92	0.135 | nda μM	–
C=CC(=O)N1CCN(c2nc(=O)n(-c3c(C)cc(O)nc3C(C)C)c3nc(-c4ccccc4F)c(Cl)cc23)[C@@H](C)C1 [Example 137, 6-chloro-7-(2-fluorophenyl)-1-(4-methyl-6-oxo-2-(2-propanyl)-1,6-dihydro-3-pyridinyl)-4-((2S)-2-methyl-4-(2-propenoyl)-1-piperazinyl)pyrido[2,3-d]pyrimidin-2(1H)-one]	–	5.75	0.5 | nda μM	–
C=CC(=O)N1CCN(c2nnc(-c3c(C(C)C)cccc3C(C)C)c3nc(-c4ccccc4F)c(Cl)cc23)[C@@H](C)C1 [Example 138, 1-((3S)-4-(3-Chloro-8-(2,6-di(2-propanyl)phenyl)-2-(2-fluorophenyl)pyrido[2,3-d]pyridazin-5-yl)-3-methyl-1-piperazinyl)-2-propen-1-one]	–	5.80	1.75 | nda μM	–
C=CC(=O)N1CCN(c2nc(=O)n(-c3c(C(C)C)nc(N)nc3C(C)C)c3nc(-c4ccccc4F)c(Cl)cc23)[C@@H](C)C1 [Example 139, 1-(2-Amino-4,6-di(2-propanyl)-5-pyrimidinyl)-6-chloro-7-(2-fluorophenyl)-4-((2S)-2-methyl-4-(2-propenoyl)-1-piperazinyl)pyrido[2,3-d]pyrimidin-2(1H)-one]	–	7.60	0.117 | nda μM	–
C=CC(=O)N1CCN(c2nc(=O)n(-c3c(C(C)C)ncnc3N(C)C)c3nc(-c4ccccc4F)c(Cl)cc23)[C@@H](C)C1 [Example 140, 6-Chloro-1-(4-(dimethylamino)-6-(2-propanyl)-5-pyrimidinyl)-7-(2-fluorophenyl)-4-((2S)-2-methyl-4-(2-propenoyl)-1-piperazinyl)pyrido[2,3-d]pyrimidin-2(1H)-one]	–	7.02	0.09 | nda μM	–
C=CC(=O)N1CCN(c2nc(=O)n(-c3c(C)cc(C(=O)O)cc3C(C)C)c3nc(-c4ccccc4F)c(Cl)cc23)[C@@H](C)C1 [Example 141, 4-(6-Chloro-7-(2-fluorophenyl)-4-((2S)-2-methyl-4-(2-propenoyl)-1-piperazinyl)-2-oxopyrido[2,3-d]pyrimidin-1(2H)-yl)-3-methyl-5-(2-propanyl)benzoic acid]	–	5.28	0.393 | nda μM	–
C=CC(=O)N1CCN(c2nc(=O)n(-c3c(N)cccc3C(C)C)c3nc(-c4ccccc4F)c(Cl)cc23)[C@@H](C)C1 [Example 155, 1-(2-Amino-6-(2-propanyl)phenyl)-6-chloro-7-(2-fluorophenyl)-4-((2S)-2-methyl-4-(2-propenoyl)-1-piperazinyl)pyrido[2,3-d]pyrimidin-2(1H)-one]	–	6.99	0.108 | nda μM	–
C=CC(=O)N1CCN(c2nc(=O)n(-c3c(C)cc(C(=O)OC)cc3C(C)C)c3nc(-c4ccccc4F)c(Cl)cc23)[C@@H](C)C1 [Example 156, Methyl 4-(6-chloro-7-(2-fluorophenyl)-4-((2S)-2-methyl-4-(2-propenoyl)-1-piperazinyl)-2-oxopyrido[2,3-d]pyrimidin-1(2H)-yl)-3-methyl-5-(2-propanyl)benzoate]	–	7.10	0.057 | nda μM	–
